Experimental findings from patent EP0595557A1, “New substituted azetidinones as anti-inflammatory and antidegenerative agents” (MERCK & CO. INC., priority 1992, dated 1994) are described below.

The target in the first assay is T1, Human Polymorphonuclear Leukocyte Elastase (Homo sapiens, UniProt P08246).
T1 construct: Crude extract of human polymorphonuclear leukocytes (PMN) containing elastase activity; from tissue; host or cells: human polymorphonuclear leukocytes (crude extract)
T1 sequence (P08246 30-267): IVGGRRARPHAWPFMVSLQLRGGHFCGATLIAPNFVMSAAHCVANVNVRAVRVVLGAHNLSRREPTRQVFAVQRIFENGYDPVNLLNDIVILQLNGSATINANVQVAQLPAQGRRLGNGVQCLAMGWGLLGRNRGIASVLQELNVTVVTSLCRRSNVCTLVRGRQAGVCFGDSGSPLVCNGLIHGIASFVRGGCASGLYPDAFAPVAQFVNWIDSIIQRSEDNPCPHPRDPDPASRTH
The assay can be described thus: Enzyme assay for inhibition of human polymorphonuclear leukocyte elastase via hydrolysis of Boc-AAPAN or Boc-AAPVN. It counts as biochemical. To be noted: pH 7.5, second order rate constant for inactivation of the enzyme, expressed to the nearest thousand, read-out: Kobs/[I]. The procedure, abridged:
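Crude human PMN extract as enzyme source, with 0.2 mM Boc-AAPAN in 0.05M TES buffer pH 7.5. Inhibitors in DMSO were added to substrate before the extract, and rate was followed as ΔOD/min at 410 mµ. Values are kobs/I, the second-order inactivation rate constant (per mole per second).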
In the case of `CCC[C@@H](NC(=O)N1C(=O)C(CC)(CC)[C@@H]1Oc1ccc(CC(=O)N(C)CC(=O)N(CCO)CCO)cc1)c1ccc(C)cc1` [Compound 52], the kinact/KI is 273000 M⁻¹ s⁻¹.

Turning to `CCC[C@@H](NC(=O)N1C(=O)C(CC)(CC)[C@@H]1Oc1ccc(CC(=O)NCC(=O)O)cc1)c1ccc(C)cc1` [Compound 47], the kinact/KI is 876000 M⁻¹ s⁻¹. Turning to `CCC[C@@H](NC(=O)N1C(=O)C(CC)(CC)[C@@H]1Oc1ccc(C(=O)NCCCC[C@H](N)C(=O)O)cc1)c1ccc(C)cc1` [Compound 209], the kinact/KI amounted to 929000 M⁻¹ s⁻¹. Consider `CCC[C@@H](NC(=O)N1C(=O)C(CC)(CC)[C@@H]1Oc1ccc(C(=O)N(CCN(C)C)Cc2ccccc2)cc1)c1ccc(C)cc1` [Compound 137], for which the kinact/KI amounted to 1.38e+06 M⁻¹ s⁻¹. `CCC[C@@H](NC(=O)N1C(=O)C(CC)(CC)[C@@H]1Oc1ccc(CC(=O)N(C)CCN(C)C)cc1)c1ccc(C)cc1` [Compound 44]: the kinact/KI is 1.24e+06 M⁻¹ s⁻¹.

With `CCC[C@@H](NC(=O)N1C(=O)C(CC)(CC)[C@@H]1Oc1ccc(C(=O)N(CC)CC)cc1)c1ccc(C(=O)N2CCOCC2)cc1` [Compound 279], the kinact/KI worked out at 566000 M⁻¹ s⁻¹. Consider `CCC[C@@H](NC(=O)N1C(=O)C(CC)(CC)[C@@H]1Oc1ccc(C(=O)N(C)CCN(C)C)cc1)c1ccc(C(=O)N(C)C)cc1` [Compound 286], for which the kinact/KI worked out at 551000 M⁻¹ s⁻¹. For the compound `CCC[C@@H](NC(=O)N1C(=O)C(CC)(CC)[C@@H]1Oc1ccc(CC(=O)N(C)CCN2CCOCC2)cc1)c1ccc(C)cc1` [Compound 53], the kinact/KI was 2.51e+06 M⁻¹ s⁻¹. On to `CCC[C@@H](NC(=O)N1C(=O)C(CC)(CC)[C@@H]1Oc1ccc(C(=O)N(C)CCN(C)C)cc1)c1ccc(C(=O)O)cc1` [Compound 287], for which the kinact/KI turned out to be 113000 M⁻¹ s⁻¹. As for `CCC[C@@H](NC(=O)N1C(=O)C(CC)(CC)[C@@H]1Oc1ccc(C(=O)N(C)CCN(C)Cc2ccccc2)cc1)c1ccc(C)cc1` [Compound 125], the kinact/KI is 2.05e+06 M⁻¹ s⁻¹. As for `CCC[C@@H](NC(=O)N1C(=O)C(CC)(CC)[C@@H]1Oc1ccc(CC(=O)N2CCOCC2)cc1)c1ccc(C(=O)O)cc1` [Compound 281], the kinact/KI worked out at 62000 M⁻¹ s⁻¹. Take `CCCCNC(=O)c1ccc(OC2N(C(=O)NC(CCC)c3ccc(C)cc3)C(=O)C2(CC)CC)cc1` (stereo not drawn) [Compound 201]: the kinact/KI was 2.46e+06 M⁻¹ s⁻¹. Regarding `CCC[C@@H](NC(=O)N1C(=O)C(CC)(CC)[C@@H]1Oc1ccc(C(=O)N(C)CCN(C)Cc2ccc(OC)cc2)cc1)c1ccc(C)cc1` [Compound 192], the kinact/KI came out at 1.78e+06 M⁻¹ s⁻¹.

As for `CCC[C@@H](NC(=O)N1C(=O)C(CC)(CC)[C@@H]1Oc1ccc(C(=O)N(C)CCN(Cc2ccccc2)Cc2ccccc2)cc1)c1ccc(C)cc1` [Compound 161], the kinact/KI is 1.02e+06 M⁻¹ s⁻¹. The same measure, in the same setting: to `CCC[C@@H](NC(=O)N1C(=O)C(CC)(CC)[C@@H]1Oc1ccc(CC(=O)N(C)Cc2ccccc2)cc1)c1ccc(C)cc1` [Compound 68] belongs 1.9e+06 M⁻¹ s⁻¹; to `CCC[C@@H](NC(=O)N1C(=O)C(CC)(CC)[C@@H]1Oc1ccc(C(=O)OCC(C)(C)N(C)C)cc1)c1ccc(C)cc1` [Compound 20, 2-dimethylamino-2-methyl-1-propyl [S-(R*,S*)]-4-[[3,3-diethyl-1-[[[1-(4-methyl-phenyl)butyl]amino]carbonyl]-4-oxo-2-azetidinyl]oxy]benzoate], 1.47e+06 M⁻¹ s⁻¹; to `CCC[C@@H](NC(=O)N1C(=O)C(CC)(CC)[C@@H]1Oc1ccc(C(=O)OCC(=O)N(C)CC(N)=O)cc1)c1ccc(C)cc1` [Compound 4], 4.29e+06 M⁻¹ s⁻¹. Consider `CCC[C@@H](NC(=O)N1C(=O)C(CC)(CC)[C@@H]1Oc1ccc(CC(=O)NCCCN(C)C)cc1)c1ccc(C)cc1` [Compound 45], for which the kinact/KI worked out at 1.12e+06 M⁻¹ s⁻¹. Consider `CCC[C@@H](NC(=O)N1C(=O)C(CC)(CC)[C@@H]1Oc1ccc(CC(=O)N(CCC)CCC)cc1)c1ccc(C)c(C(=O)N2CCOCC2)c1` [Compound 271], for which the kinact/KI amounted to 826000 M⁻¹ s⁻¹. `CCC[C@@H](NC(=O)N1C(=O)C(CC)(CC)[C@@H]1Oc1ccc(C(=O)O[C@@H](C)C(=O)N(CC)CC)cc1)c1ccc(C)cc1` [Compound 12, 2-(diethylamino)-1-methyl-2-oxoethyl[S-(R*,S*)]-4-((3,3-diethyl-1-(((1-(4-methyl-phenyl)butyl)amino)carbonyl)-4-oxo-2-azetidinyl)oxy) benzoate]: the kinact/KI was determined as 2.82e+06 M⁻¹ s⁻¹.

`CCC[C@@H](NC(=O)N1C(=O)C(CC)(CC)[C@@H]1Oc1ccc(C(=O)N(C)CCN(CC)CC)cc1)c1ccc(Cl)cc1` [Compound 300]: the kinact/KI came to 1.28e+06 M⁻¹ s⁻¹.

As for `CCC[C@@H](NC(=O)N1C(=O)C(CC)(CC)[C@@H]1Oc1ccc(CC(=O)NOCc2ccccc2)cc1)c1ccc(C)cc1` [Compound 70], the kinact/KI amounted to 2.37e+06 M⁻¹ s⁻¹. In the case of `CCC[C@@H](NC(=O)N1C(=O)C(CC)(CC)[C@@H]1Oc1ccc(CC(=O)OCCN2CCOCC2)cc1)c1ccc(C)cc1` [Compound 35], the kinact/KI is 1.72e+06 M⁻¹ s⁻¹. Consider `CCC[C@@H](NC(=O)N1C(=O)C(CC)(CC)[C@@H]1Oc1ccc(C(=O)N(C)CC(C)N(C)Cc2ccccc2)cc1)c1ccc(C)cc1` (stereo partly drawn) [Compound 218], for which the kinact/KI was determined as 2.12e+06 M⁻¹ s⁻¹.

For the compound `CCC[C@@H](NC(=O)N1C(=O)C(CC)(CC)[C@@H]1Oc1ccc(C(=O)N(C)CCN(C)C2=CCCCC2)cc1)c1ccc(C)cc1` [Compound 225], the kinact/KI amounted to 1.84e+06 M⁻¹ s⁻¹. With `CCC[C@@H](NC(=O)N1C(=O)C(CC)(CC)[C@@H]1Oc1ccc(C(=O)N2CCC[C@H]2C(N)=O)cc1)c1ccc(C)cc1` [Compound 227], the kinact/KI is 931000 M⁻¹ s⁻¹.

Regarding `CCC[C@@H](NC(=O)N1C(=O)C(CC)(CC)[C@@H]1Oc1ccc(C(=O)NCCN(C(C)C)C(C)C)cc1)c1ccc(C)cc1` [Compound 84], the kinact/KI amounted to 2.1e+06 M⁻¹ s⁻¹. In the case of `CCC[C@@H](NC(=O)N1C(=O)C(CC)(CC)[C@@H]1Oc1ccc(C(=O)N2CCN(Cc3ccccc3)CC2)cc1)c1ccc(C)cc1` [Compound 246], the kinact/KI was 5.17e+06 M⁻¹ s⁻¹.

In the case of `CCC[C@@H](NC(=O)N1C(=O)C(CC)(CC)[C@@H]1Oc1ccc(C(=O)N(C)CC(O)C(O)C(O)C(O)CO)cc1)c1ccc(C)cc1` (stereo partly drawn) [Compound 156], the kinact/KI amounted to 1.2e+06 M⁻¹ s⁻¹.

For `CCC[C@@H](NC(=O)N1C(=O)C(CC)(CC)[C@@H]1Oc1ccc(C(=O)N(C)CCN(C)Cc2cccc(OC)c2)cc1)c1ccc(C)cc1` [Compound 205], the kinact/KI worked out at 1.91e+06 M⁻¹ s⁻¹. The same measure, in the same setting: to `CCC[C@@H](NC(=O)N1C(=O)C(CC)(CC)[C@@H]1Oc1ccc(C(=O)N2CCC(N(C)C)C2)cc1)c1ccc(C)cc1` (stereo partly drawn) [Compound 229] belongs 1.34e+06 M⁻¹ s⁻¹; to `CCC[C@@H](NC(=O)N1C(=O)C(CC)(CC)[C@@H]1Oc1ccc(C(=O)N(C)CCN2CCS(=O)(=O)CC2)cc1)c1ccc(C)cc1` [Compound 112], 1.6e+06 M⁻¹ s⁻¹; to `CCC[C@@H](NC(=O)N1C(=O)C(CC)(CC)[C@@H]1Oc1ccc(C(=O)N(C)CCN(C)C)cc1)c1ccc(Cl)cc1` [Compound 299], 1.48e+06 M⁻¹ s⁻¹.

Consider `CCC[C@@H](NC(=O)N1C(=O)C(CC)(CC)[C@@H]1Oc1ccc(CC(=O)N(C)CCCC(=O)O)cc1)c1ccc(C)cc1` [Compound 64], for which the kinact/KI was 917000 M⁻¹ s⁻¹. For the compound `CCC[C@@H](NC(=O)N1C(=O)C(CC)(CC)[C@@H]1Oc1ccc(C(=O)N(CCN(CC)CC)CCN(CC)CC)cc1)c1ccc(C)cc1` [Compound 144], the kinact/KI worked out at 1.51e+06 M⁻¹ s⁻¹. Still for that read-out and setting: to `CCC[C@@H](NC(=O)N1C(=O)C(CC)(CC)[C@@H]1Oc1ccc(C(=O)N(C)Cc2ccccc2)cc1)c1ccc(C)cc1` [Compound 188] belongs 1.84e+06 M⁻¹ s⁻¹. As to `CCC[C@@H](NC(=O)N1C(=O)C(CC)(CC)[C@@H]1Oc1ccc(C(=O)N(C)CCN(C)Cc2cccc(C#N)c2)cc1)c1ccc(C)cc1` [Compound 179], the kinact/KI is 2.45e+06 M⁻¹ s⁻¹.

For the compound `CCC[C@@H](NC(=O)N1C(=O)C(CC)(CC)[C@@H]1Oc1ccc(C(=O)N(C)CC(c2ccccc2)N(C)C)cc1)c1ccc(C)cc1` (stereo partly drawn) [Compound 186], the kinact/KI amounted to 1.05e+06 M⁻¹ s⁻¹. The same measure, in the same setting: to `CCC[C@@H](NC(=O)N1C(=O)C(CC)(CC)[C@@H]1Oc1ccc(CC(=O)N(C)CCN(C)C)cc1)c1ccc(O)cc1` [Compound 284] belongs 309000 M⁻¹ s⁻¹; to `CCC[C@@H](NC(=O)N1C(=O)C(CC)(CC)[C@@H]1Oc1ccc(CC(=O)Nc2cccc(OC)c2)cc1)c1ccc(C)cc1` [Compound 62], 1.62e+06 M⁻¹ s⁻¹.

As to `CCC[C@@H](NC(=O)N1C(=O)C(CC)(CC)[C@@H]1Oc1ccc(C(=O)N(C)CCN(C)Cc2cccc(C(F)(F)F)c2)cc1)c1ccc(C)cc1` [Compound 181], the kinact/KI amounted to 564000 M⁻¹ s⁻¹. The same measure, in the same setting: to `CCC[C@@H](NC(=O)N1C(=O)C(CC)(CC)[C@@H]1Oc1ccc(C(=O)N(C)CCN(C)Cc2ccc(C)cc2C)cc1)c1ccc(C)cc1` [Compound 195] belongs 1.12e+06 M⁻¹ s⁻¹; to `CCC[C@@H](NC(=O)N1C(=O)C(CC)(CC)[C@@H]1Oc1ccc(C(=O)NCCN2CCCC2)cc1)c1ccc(C)cc1` [Compound 94], 1.24e+06 M⁻¹ s⁻¹. On the same count and under the same terms, to `CCC[C@@H](NC(=O)N1C(=O)C(CC)(CC)[C@@H]1Oc1ccc(C(=O)N(C)C2CN3CCC2CC3)cc1)c1ccc(C)cc1` (stereo partly drawn) [Compound 116] belongs 3.48e+06 M⁻¹ s⁻¹. As for `CCC[C@@H](NC(=O)N1C(=O)C(CC)(CC)[C@@H]1Oc1ccc(CC(=O)N(C)CCN(C)C)cc1)c1ccc2c(c1)OCO2` [Compound 259], the kinact/KI turned out to be 2.52e+06 M⁻¹ s⁻¹. As for `CCC[C@@H](NC(=O)N1C(=O)C(CC)(CC)[C@@H]1Oc1ccc(C(=O)N2CCN(CC(=O)OCC)CC2)cc1)c1ccc(C)cc1` [Compound 250], the kinact/KI stood at 1.57e+06 M⁻¹ s⁻¹.

The assay is the same for the next values; noted with them: second order rate constant for inactivation of the enzyme, expressed to the nearest thousand; pH 7.5.
In the case of `CCC[C@@H](NC(=O)N1C(=O)C(CC)(CC)[C@@H]1Oc1ccc(C(=O)N(C)CCN2CC3CCC(CC3)C2)cc1)c1ccc(C)cc1` [Compound 108], the “Kobs/[I]” value is reported as 2,953,000 per mole per second. For the compound `CCC[C@@H](NC(=O)N1C(=O)C(CC)(CC)[C@@H]1Oc1ccc(CC(=O)N(C)CCN(C)C)cc1)c1ccc(OC)cc1` [Compound 285], the “Kobs/[I]” value was 566,000 per mole per second.
